From patent publication US20170022201A1, “MACROCYLIC PYRIDINE DERIVATIVES” (Janssen Pharmaceutica NV, priority 2014, published 2017) come the findings set out here.

One data set addresses T1, EF2K (Homo sapiens, UniProt O00418).
T1 construct: host or cells: LN-229 glioblastoma cell lysate
T1 sequence (O00418 1-725): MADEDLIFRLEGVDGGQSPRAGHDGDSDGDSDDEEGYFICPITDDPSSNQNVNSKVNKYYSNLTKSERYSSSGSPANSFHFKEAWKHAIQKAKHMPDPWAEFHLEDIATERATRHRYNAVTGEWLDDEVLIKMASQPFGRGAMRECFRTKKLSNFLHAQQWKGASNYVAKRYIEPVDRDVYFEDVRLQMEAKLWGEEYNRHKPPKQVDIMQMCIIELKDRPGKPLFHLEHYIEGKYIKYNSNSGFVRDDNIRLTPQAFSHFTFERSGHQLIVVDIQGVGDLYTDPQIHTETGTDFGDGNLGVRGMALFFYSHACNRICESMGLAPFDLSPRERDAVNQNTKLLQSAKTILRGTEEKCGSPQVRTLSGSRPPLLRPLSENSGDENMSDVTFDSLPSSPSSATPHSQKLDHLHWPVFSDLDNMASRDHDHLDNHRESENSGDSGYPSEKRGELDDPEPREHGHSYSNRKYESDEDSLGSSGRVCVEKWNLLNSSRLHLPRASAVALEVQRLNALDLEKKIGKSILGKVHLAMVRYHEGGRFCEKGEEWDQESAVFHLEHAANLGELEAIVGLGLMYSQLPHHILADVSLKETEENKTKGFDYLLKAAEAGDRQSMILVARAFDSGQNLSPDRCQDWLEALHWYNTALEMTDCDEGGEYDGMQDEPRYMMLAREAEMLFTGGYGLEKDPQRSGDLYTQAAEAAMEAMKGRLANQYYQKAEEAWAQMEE
Nature of the data set: Biochemical EF2K lysate-based kinase assay (AlphaLISA p-eEF2 Thr56). As to conditions: LN-229 cell lysates, 10 mM ATP, pH 6.6; pIC50 = -log IC50 (M); read-out: eEF2K_C_alphalisa pIC50 (converted). In short, it runs like this: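 LN-229 glioblastoma lysate supplied both EF2K and eEF2 substrate; compound incubated with lysate 15 minutes at room temperature at pH 6.6 with 10 mM Mg2+ and 10 mM ATP, then stopped with excess EDTA. Thr56-phosphorylated eEF2 detected by sandwich AlphaLISA, final read after overnight standing.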
On the technique in general: Bead proximity is the source of the signal in Alpha formats.

For the next data set, the target named is T2, eEF2K (Homo sapiens, UniProt O00418).
T2 construct: in the immortalized epithelial breast cell lines, MCF10A; host or cells: MCF10A immortalized breast epithelial cells
T2 sequence (O00418 1-725): T1 sequence (O00418 1-725)
Nature of the data set: EF2K cell-based assay (P-EF2 AlphaLISA, 2-deoxyglucose stimulated MCF10A cells). The following applies: 2.5 mM 2-deoxyglucose 4 h, phosphorylation of EF2 at Thr 56, pIC50 = -log IC50 (M), read-out: eEF2K_C_PThr56 pIC50 (converted). The essentials: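 MCF10A cells pretreated with compound for 1 h, then stimulated with 2.5 mM 2-deoxyglucose for 4 h to deplete ATP and activate AMPK. Phospho-EF2 in lysates measured by AlphaLISA.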

Another data set deals with PIK3C3 lipid kinase (Homo sapiens, UniProt Q8NEB9). As to the kind of experiment: Biochemical Vps34 lipid kinase assay (ADP-Glo). The following applies: 20 μM ATP; for remaining activity at 1 µM: 1 h, single dose 1 μM, residual activity compared to control (DMSO), read-out: VPS34_1microM_%ofcntrl; for IC50: serial dilution 10 μM to 0.3 nM, pIC50 = -log IC50 (M). In short, it runs like this: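 ADP-Glo luminescence measured PIK3C3 (7.6 nM) activity with 50 μM substrate, 20 μM ATP (apparent Km), 3 mM MnCl2, HEPES pH 7.5, 60 min at 30° C. Compounds tested at 1 μM single dose (residual activity vs DMSO) or half-log series 10 μM–0.3 nM giving pIC50.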
Sequence of PIK3C3 lipid kinase (Q8NEB9 whole entry): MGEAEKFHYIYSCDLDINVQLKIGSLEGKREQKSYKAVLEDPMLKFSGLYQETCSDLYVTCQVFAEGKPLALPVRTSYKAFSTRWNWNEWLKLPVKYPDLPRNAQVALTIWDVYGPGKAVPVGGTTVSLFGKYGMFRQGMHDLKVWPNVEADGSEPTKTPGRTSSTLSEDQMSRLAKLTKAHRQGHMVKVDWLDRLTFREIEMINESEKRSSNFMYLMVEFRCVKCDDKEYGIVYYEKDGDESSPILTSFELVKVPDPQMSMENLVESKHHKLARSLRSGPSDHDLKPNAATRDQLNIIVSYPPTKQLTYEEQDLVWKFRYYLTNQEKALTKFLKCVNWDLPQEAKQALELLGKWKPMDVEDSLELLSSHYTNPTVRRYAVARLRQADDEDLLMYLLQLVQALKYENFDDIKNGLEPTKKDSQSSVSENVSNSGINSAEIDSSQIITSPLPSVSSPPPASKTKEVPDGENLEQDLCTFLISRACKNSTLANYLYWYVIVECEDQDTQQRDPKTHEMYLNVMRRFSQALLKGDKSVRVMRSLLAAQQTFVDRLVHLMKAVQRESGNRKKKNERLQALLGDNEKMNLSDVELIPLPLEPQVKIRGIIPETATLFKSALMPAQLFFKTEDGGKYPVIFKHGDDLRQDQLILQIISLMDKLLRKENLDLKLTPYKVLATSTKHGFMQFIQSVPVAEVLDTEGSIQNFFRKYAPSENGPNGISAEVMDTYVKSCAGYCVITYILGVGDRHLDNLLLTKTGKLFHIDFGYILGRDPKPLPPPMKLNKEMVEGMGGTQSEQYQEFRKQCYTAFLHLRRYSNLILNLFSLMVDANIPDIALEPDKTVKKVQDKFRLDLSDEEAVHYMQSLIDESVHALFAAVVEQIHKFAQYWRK
In general terms: In ADP-Glo the light output rises with the ADP produced.

Turning to `O=C1CN2CCN(Cc3cccc(c3)Nc3cc(ccn3)-c3cnc(nc3)NCCCN1)C(CO)C2` (single isomer, unassigned) [Compound 7], the melting point – broadly, the temperature of the solid-liquid transition – is 267.8 to 267.9 °C. For the same molecule, on EF2K, the IC50 was 1.12e-07 M. The IC50 at eEF2K was 1.62e-05 M. For the same molecule, on PIK3C3 lipid kinase, the remaining activity at 1 µM stood at 12.5% and the IC50 is 1.07e-07 M.
For `COCCN1CCN(C)C(=O)CN2CCN(CC2)Cc2cccc(c2)Nc2cc(ccn2)-c2cnc1nc2` [Compound 15], the melting point stood at 240 °C. The IC50 on EF2K was greater than 3.02e-05 M. The IC50 on eEF2K was greater than 3.02e-05 M. For the same molecule, the remaining activity at 1 µM at PIK3C3 lipid kinase was found to be 67%.
In turn, `COCCCN1CCCN(C)C(=O)CN2CCN(CC2)Cc2cccc(c2)Nc2cc(ccn2)-c2cnc1nc2` [Compound 14] yielded a melting point of 240 °C. Also, the IC50 on EF2K was greater than 3.02e-05 M. In addition, the IC50 at eEF2K is greater than 3.02e-05 M. At PIK3C3 lipid kinase, the remaining activity at 1 µM came out at 50.4%.
Regarding `CC1CN2CCN1Cc1cccc(c1)Nc1cc(ccn1)-c1ccc(nc1)NCCCNC(=O)C2` (stereo not shown) [Compound 71], the melting point was 162 °C. The IC50 on EF2K is 3.31e-07 M. Further, the IC50 at eEF2K is 2.45e-05 M. Besides, at PIK3C3 lipid kinase, the remaining activity at 1 µM is 32.1%.
In the same order, the values of `O=C1CNCCNc2ccc(cn2)-c2ccnc(c2)Nc2cccc(c2)CN2CCN1CC2` [Compound 144] are 143 °C, roughly 1.51e-05 M, greater than 3.02e-05 M and 53.7%.
Take `O=C1CN2CCC(CC2)Nc2cccc(c2)Nc2cc(ccn2)-c2cnc(nc2)NCCCN1` [Compound 106]: the melting point lay within 255.3 to 256.8 °C. Moreover, the IC50 at EF2K was 7.59e-07 M. At eEF2K, the IC50 was 2.88e-05 M. For the same molecule, on PIK3C3 lipid kinase, the remaining activity at 1 µM amounted to 22.4% and the IC50 was 5.89e-07 M.
`O=C1CN2CCN(CC2)Cc2cccc(c2)Nc2cc(ccn2)-c2ccc(nc2)NCCN1` [Compound 70] displayed a melting point of 252 °C. Further, at EF2K, the IC50 is 5.62e-06 M. The IC50 on eEF2K was greater than 3.02e-05 M. On PIK3C3 lipid kinase, the remaining activity at 1 µM stood at 72.6%.
On to `O=C1CN2CCN(CC2)Cc2cccc(c2)Nc2cc(ccn2)-c2cnc(nc2)CN(C(=O)C2CC2)CCN1` [Compound 131], for which the IC50 on EF2K is 6.17e-08 M; on eEF2K, 2.51e-06 M. Further, the remaining activity at 1 µM at PIK3C3 lipid kinase amounted to 56.2%.
With `CNC(=O)c1ccc2cc1CN1CCN(CC1)CC(=O)NCCCNc1ncc(cn1)-c1ccnc(c1)N2` [Compound 9], the IC50 at EF2K was 3.47e-08 M; on eEF2K, roughly 5.5e-06 M; on PIK3C3 lipid kinase, 1.66e-07 M. In addition, the remaining activity at 1 µM on PIK3C3 lipid kinase stood at 7.1%.
In the case of `O=C1CN2CCN(CC2)Cc2cccc(c2F)Nc2cc(ccn2)-c2cnc(nc2)NCCCN1` [Compound 1], the results for the IC50 on EF2K, on eEF2K and against PIK3C3 lipid kinase were 1.05e-08 M, 3.63e-07 M and 4.9e-08 M, respectively.
The corresponding values for `O=C1NCCCNc2ncc(cn2)-c2ccnc(c2)Nc2cccc(c2)CN2CCN(CC2)C1CO` (single isomer, unassigned) [Compound 2] are 4.79e-08 M, roughly 2.51e-06 M and 5.5e-07 M.
